{
  "source": "paper PMC9323733",
  "about": "“Efficacy of Vafidemstat in Experimental Autoimmune Encephalomyelitis Highlights the KDM1A/RCOR1/HDAC Epigenetic Axis in Multiple Sclerosis” (Pharmaceutics, 2022)",
  "key": {"[1]": {"target": "T1, human S1P1 receptor (Homo sapiens, UniProt P21453)", "T1 construct": "host or cells: CHO cells", "T1 sequence (P21453 whole entry)": "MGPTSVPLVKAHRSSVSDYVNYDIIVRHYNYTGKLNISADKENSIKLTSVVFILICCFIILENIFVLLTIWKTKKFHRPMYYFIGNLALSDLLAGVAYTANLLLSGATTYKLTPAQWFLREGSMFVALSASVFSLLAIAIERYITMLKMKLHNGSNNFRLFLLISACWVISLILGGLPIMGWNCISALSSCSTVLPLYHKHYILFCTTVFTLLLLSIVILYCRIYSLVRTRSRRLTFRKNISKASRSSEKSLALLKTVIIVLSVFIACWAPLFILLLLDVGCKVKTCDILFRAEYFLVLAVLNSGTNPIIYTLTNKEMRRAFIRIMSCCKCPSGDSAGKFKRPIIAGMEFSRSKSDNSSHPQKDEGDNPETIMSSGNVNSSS", "test": "CellKey impedance assay in CHO cells, agonistic and antagonistic effect", "type": "cell-based", "description": "Cell on impedance modulation, using the CellKey (Cellular Dielectric Spectroscopy) detection method (CellKey 96, MDS Sciex, Concord, ON, Canada) at Eurofins Pharma Discovery Services (Celle-Lévescault, France). CHO cells were seeded onto a 96-well plate at 15.104 cells/well in HBSS buffer (Invitrogen), 20 mM HEPES (Invitrogen), 10% FCS (Invitrogen), and 0.1% BSA (Sigma), allowed to equilibrate for 60 min at 28 °C. DMSO solutions of compounds were diluted in HBSS and 0.1% BSA. Plates were placed onto the system, and measurements were made at a temperature of 28 °C. To measure the agonistic effect, compounds and controls in duplicate were added simultaneously to all of the wells using an integrated fluidics system. Impedance measurements were monitored for 10 min after ligand addition. […] To measure the antagonistic effect, compounds and controls in duplicate were pre-incubated for 15 min before the addition of the reference agonist S1P at 0.01 µM (EC80). Impedance measurements were monitored for 10 min.\nEvaluation of the agonistic (a) and antagonist (b) effect of the compounds on the human S1P1 receptor. […] Data are expressed as percentage of control (no compound) activity, n = 2. TSA was used as a control; (d) Cellular HDAC activity assay. […] SAHA was used as a control. Ponceau S staining was used as loading control. Veh: Vehicle. […] TSA: Trichostatin A. SAHA: suberoylanilide hydroxamic acid."}, "[2]": {"target": "T2, recombinant HDAC2 (Homo sapiens, UniProt Q92769)", "T2 construct": "purchased BPS Bioscience 50002", "T2 sequence (Q92769 whole entry)": "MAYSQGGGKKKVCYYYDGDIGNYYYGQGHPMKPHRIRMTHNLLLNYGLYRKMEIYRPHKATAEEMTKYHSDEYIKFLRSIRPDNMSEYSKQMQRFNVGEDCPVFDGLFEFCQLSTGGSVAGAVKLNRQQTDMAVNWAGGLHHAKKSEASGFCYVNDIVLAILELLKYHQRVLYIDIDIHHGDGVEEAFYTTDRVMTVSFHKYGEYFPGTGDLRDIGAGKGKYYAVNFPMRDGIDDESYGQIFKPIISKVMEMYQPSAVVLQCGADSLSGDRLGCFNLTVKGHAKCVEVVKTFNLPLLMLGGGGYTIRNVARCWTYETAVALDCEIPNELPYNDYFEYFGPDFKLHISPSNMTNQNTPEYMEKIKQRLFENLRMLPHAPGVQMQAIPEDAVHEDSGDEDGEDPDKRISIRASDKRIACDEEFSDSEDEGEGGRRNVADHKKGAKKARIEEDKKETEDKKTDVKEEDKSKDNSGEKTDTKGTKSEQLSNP", "test": "HDAC2 fluorimetric biochemical assay", "description": "HDAC2 activity was determined using a fluorimetric assay at BPS Bioscience (San Diego, CA, USA). Compounds were dissolved in DMSO (Sigma), and serial dilutions were further diluted in HDAC assay buffer (BPS). These working solutions were incubated in duplicate at room temperature for 3 h in a mixture containing HDAC assay buffer, BSA (Fisher Scientific), and recombinant HDAC2 (BPS). The enzymatic reactions were initiated by the addition of a fluorogenic, acetylated peptide substrate (BPS) and proceeded for 30 min at 37 °C. Then, HDAC assay developer (BPS) was added, and after further incubation at room temperature, fluorescence intensity was measured at an excitation of 360 nm and an emission of 460 nm using a Tecan Infinite M1000 microplate reader. Trichostatin A (TSA, Selleckchem, Houston, TX, USA) was used as a reference inhibitor.\nFor the biochemical assays, the fluorescence signal relative to the background (assay mixture in the absence of the enzyme) was subtracted from each fluorescent intensity data. Activity in the presence of compound was expressed as a percentage of fluorescence intensity in the absence of the compound."}, "[3]": {"system": "SH-SY5Y cells", "test": "Human H3 acetylation assay (Western blot), cellular HDAC activity", "type": "cell-based", "settings": "1 and 0.1 µM, 2 and 6 h", "description": "Human H3 acetylation assays: for the determination of global and K9-specific acetylation levels, 500,000 SH-SY5Y cells were seeded in 6-well plates in DMEM/F12 1:1 (Sigma), supplemented with 2 mM glutamine (LabClinics) and 10% FBS (Sigma) and incubated at 37 °C and 5% CO2 in a humid atmosphere. […] After 2 and 6 h of treatment, cells were harvested and centrifuged at 250× g for 4 min at room temperature and cell pellets used for total histone extraction with EpiQuik Total Histone Extraction Kit (Epigentek, Farmingdale, NY, USA) following manufacturer’s instructions. 1 µg of histone extracts were run in MOPS buffer in 12% PAGE (Life Technologies, Carlsbad, CA, USA) and transferred with the iBlot system to nitrocellulose membranes. Transferred blots were stained with the Ponceau S solution (Sigma) and scanned with an Epson Perfection V600 Photo Scanner. Membranes were blocked in blocking buffer (5% skimmed milk in PBS-Tween 0.1%) for 1 h at room temperature, and after blocking blots were incubated with rabbit polyclonal anti-H3K9Ac (1:2000 dilution, Abcam, Cambridge, UK) and rabbit polyclonal anti-H3ac (K9 + K14 + K18 + K23 + K27) (1:2000 dilution, Abcam) overnight at 4 °C in ablocking buffer. […]"}, "[4]": {"target": "KDM1A (Homo sapiens, UniProt O60341)", "test": "In vitro potency, KDM1A inhibition", "type": "biochemical"}, "[5]": {"system": "C57BL/6 mice with chronic EAE", "test": "Chronic EAE induced by MOG35–55, clinical score", "type": "in vivo, mouse", "description": "Mice also received i.p. injections of 200 ng of pertussis toxin on days 0 and 2 [32]. Immunized mice were randomly distributed in different groups. […] MPTP is a prodrug which is converted to the neurotoxin 1-methyl-4-phenylpyridinium (MPP+) by MAO-B in vivo.\nCompounds were administered once daily for five consecutive days in two cycles, from day 12 to 16 and from day 19 to 23 post-immunization. […] HPβCD was included to facilitate dissolution. Mice were scored daily for signs of EAE according to the following clinical scoring system: 0, no clinical signs; 0.5, partial loss of tail tonicity; 1, complete loss of tail tonicity; 2, flaccid tail and abnormal gait; 3, complete hind leg paralysis; 4, hind leg paralysis with hind body paresis; 5, hind and foreleg paralysis; and 6, death. Intermediate phenotypes were scored as a half integer. Animals were sacrificed when they kept a score of 5 more than 24 h. Investigators which administered the compounds and scored the animals were blinded to the treatments."}},
  "data": [
    {"smiles": "CCCCCCCCc1cccc(NC(=O)[C@H](N)COP(=O)(O)O)c1", "note": "[VPC23019]", "values": [
      {"measurement": "IC50", "setting": "[1]; impedance, vs S1P at 0.01 µM, read-out: IC50, reference antagonist", "result": 27, "unit": "nM"}
    ]},
    {"smiles": "CCCCCCCCc1ccc(CC[C@](N)(CO)COP(=O)(O)O)cc1", "note": "[FTY720-P, Fingolimod Phosphate]", "values": [
      {"measurement": "impact on recombinant HDAC2 activity", "setting": "[2]", "result": "unable to confirm the previous studies reporting that FTY720 or FTY720-P had any significant impact"},
      {"measurement": "impact on cellular HDAC activity (acetylated H3 or H3K9 levels)", "setting": "[3]", "result": "unable to confirm the previous studies reporting that FTY720 or FTY720-P had any significant impact"}
    ]},
    {"smiles": "CCCCCCCCCCCCC/C=C/[C@@H](O)[C@@H](N)COP(=O)(O)O", "note": "[S1P]", "values": [
      {"measurement": "EC80, reference agonist", "setting": "[1]; concentration used in antagonist mode", "result": 10, "unit": "nM"},
      {"measurement": "EC50", "setting": "[1]; impedance, agonistic effect, read-out: EC50, reference agonist", "result": 1, "unit": "nM"}
    ]},
    {"smiles": "C#CCN[C@@H]1CCc2ccccc21", "note": "[rasagiline, reference compound]", "values": [
      {"measurement": "IC50", "setting": "[4]", "result": "> 100000", "unit": "nM"},
      {"measurement": "mice with no or only mild clinical signs at the end of the study", "setting": "[5]; EAE experiment 2", "result": 44, "unit": "%"},
      {"measurement": "effect on clinical course / disease severity", "setting": "[5]; EAE experiment 2 (mild), p.o. ORY-2001 0.05, 0.5, 1 mg/kg, ORY-LSD1 90, 180 µg/kg, rasagiline 3 mg/kg", "result": "showed no overall protective effect"},
      {"measurement": "animals with severe signs (maximum clinical score 3.5–6)", "setting": "[5]; EAE experiment 2, highest dose tested", "result": 33, "unit": "%"},
      {"measurement": "onset of clinical signs", "setting": "[5]; EAE experiment 2, rasagiline 3 mg/kg", "result": "slight delay of the onset of the clinical signs"}
    ]}
  ]
}
